According to ChEMBL document CHEMBL1201862, “PubChem BioAssay data set” (2004):
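Where inhibition never reached the appropriate level, the endpoint shown equals the highest concentration tested. Otherwise, values were interpolated linearly from a five-concentration, 48-hour dose response in 96-well plates. GI50 is the concentration that inhibits growth by half.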 The source made the active and inactive calls. Cut-off read from the data, not from the text of the source: active = GI50 up to about 1.1 µM and inactive = higher.

Columns and labels:
Assay in all cases: DTP human tumour cell line panel, 48 h
[1] = system: DLD-1
[2] = system: HOP-18
[3] = system: KM-20L2
[4] = system: LXFL 529
[5] = system: DMS-114
[6] = system: RXF 631
[7] = system: SNB-78
[8] = system: XF498
[9] = system: DMS-273

Row | SMILES | GI50 [1] | GI50 [2] | GI50 [3] | GI50 [4] | GI50 [5] | GI50 [6] | GI50 [7] | GI50 [8] | GI50 [9]
1 | COC(=O)/C(=N\NC(=O)c1ccccc1O)C(C#N)c1ccc(Cl)cc1 (configuration not stated) | 24.5 µM (inactive) | 69.3 µM (inactive) | 33.8 µM (inactive) | 34.3 µM (inactive) | 24.7 µM (inactive) | 36.1 µM (inactive) | 26.2 µM (inactive) | – | –
2 | COc1ccccc1-c1cc(=O)c2cc(C)c(C)c(C(=O)O)c2o1 | > 100 µM (inactive) | – | > 100 µM (inactive) | > 100 µM (inactive) | > 100 µM (inactive) | – | > 100 µM (inactive) | > 100 µM (inactive) | > 100 µM (inactive)
3 | Nc1c(C(=O)Nc2ccccc2O)[n+]([O-])c2ccccc2[n+]1[O-] | > 100 µM (inactive) | > 100 µM (inactive) | > 100 µM (inactive) | > 100 µM (inactive) | 20.5 µM (inactive) | 50.6 µM (inactive) | > 100 µM (inactive) | – | 32.6 µM (inactive)
4 | O=C1C(=O)N(c2nccs2)C(=O)C(=O)C1c1nc2ccccc2s1 | > 100 µM (inactive) | 9.23 µM (inactive) | > 100 µM (inactive) | 94 µM (inactive) | > 100 µM (inactive) | – | > 100 µM (inactive) | > 100 µM (inactive) | > 100 µM (inactive)
5 | COc1cc(/C=C2\NC(=O)C3Cc4c(OC)c(C)c(OC)c(OC)c4C2N3C)c(OC)c(C)c1OC (configuration not stated) | > 100 µM (inactive) | > 100 µM (inactive) | > 100 µM (inactive) | > 100 µM (inactive) | > 100 µM (inactive) | > 100 µM (inactive) | > 100 µM (inactive) | > 100 µM (inactive) | > 100 µM (inactive)
6 | O=C(c1ccccc1)C(c1ccccc1)C1(O)C(=O)Nc2ccc(Br)cc21 (configuration not stated) | 48.2 µM (inactive) | – | > 100 µM (inactive) | 19.8 µM (inactive) | 21.6 µM (inactive) | 33.7 µM (inactive) | > 100 µM (inactive) | – | 31.6 µM (inactive)
7 | COc1cccc(N2C(=O)/C(=C/c3ccc(N(CCC#N)CCC#N)cc3)N=C2c2cc([N+](=O)[O-])ccc2Cl)c1 | 60 µM (inactive) | > 100 µM (inactive) | 97.9 µM (inactive) | 67.9 µM (inactive) | > 100 µM (inactive) | > 100 µM (inactive) | > 100 µM (inactive) | – | 38.2 µM (inactive)
8 | Cc1cc(Cl)ccc1NC(=O)C(=O)C(C(=O)c1ccc2ccccc2c1)C1OC(=O)c2ccccc21 (configuration not stated) | 14.3 µM (inactive) | 0.544 µM (active) | 24 µM (inactive) | 6.47 µM (inactive) | 6.15 µM (inactive) | 7.89 µM (inactive) | 10.3 µM (inactive) | – | 12.4 µM (inactive)
9 | O=c1[nH]c(=O)n(C2OC(COP(=O)(O)OP(=O)(O)OC3OC(CO)C(O)C(O)C3O)C(O)C2O)cc1F (configuration not stated) | < 0.0119 µM (active) | 3.22 µM (inactive) | 0.101 µM (active) | 0.151 µM (active) | 1.13 µM (inactive) | 0.0716 µM (active) | 0.366 µM (active) | 0.277 µM (active) | –
10 | CSc1nc2c(nc(N)n2C2OC(CO)C(O)C(O)C2O)c(=O)[nH]1 (configuration not stated) | > 100 µM (inactive) | > 100 µM (inactive) | > 100 µM (inactive) | > 100 µM (inactive) | > 100 µM (inactive) | > 100 µM (inactive) | > 100 µM (inactive) | 41.3 µM (inactive) | –
11 | O=C(OCc1ccccc1)n1cccc1 | > 100 µM (inactive) | > 100 µM (inactive) | > 100 µM (inactive) | > 100 µM (inactive) | 55.2 µM (inactive) | > 100 µM (inactive) | > 100 µM (inactive) | 78.2 µM (inactive) | > 100 µM (inactive)
12 | C/C(=N\NC(=S)NC(CCC(=O)O)C(=O)O)c1ccccn1 (configuration not stated) | > 100 µM (inactive) | > 100 µM (inactive) | > 100 µM (inactive) | > 100 µM (inactive) | > 100 µM (inactive) | > 100 µM (inactive) | > 100 µM (inactive) | > 100 µM (inactive) | –
13 | O=C(Nc1ccccc1)OCc1nc2c([nH]1)C(=O)C=CC2=O | > 100 µM (inactive) | 10.5 µM (inactive) | 19.4 µM (inactive) | 3.1 µM (inactive) | – | – | 23.2 µM (inactive) | 17.2 µM (inactive) | 24.2 µM (inactive)
14 | CCc1c(C#N)c(=O)[nH]c(=O)n1CCN1CCN(C(=O)NCCCCCCNC(=O)N2CCN(CCn3c(CC)c(C#N)c(=O)[nH]c3=O)CC2)CC1 | > 100 µM (inactive) | > 100 µM (inactive) | > 100 µM (inactive) | > 100 µM (inactive) | > 100 µM (inactive) | > 100 µM (inactive) | > 100 µM (inactive) | > 100 µM (inactive) | > 100 µM (inactive)
15 | CCOc1ccc2c(ccc(/C=C/c3cc(C)c4cccnc4c3O)[n+]2C)c1 | 1.28 µM (inactive) | 2.8 µM (inactive) | 0.527 µM (active) | 0.384 µM (active) | 0.301 µM (active) | – | – | – | –
16 | CC1(Cc2ccccc2)NC(=S)NC1=O (configuration not stated) | > 100 µM (inactive) | 0.143 µM (active) | > 100 µM (inactive) | > 100 µM (inactive) | > 100 µM (inactive) | > 100 µM (inactive) | > 100 µM (inactive) | – | > 100 µM (inactive)
17 | CC(CCC=O)CCOCc1ccccc1 (configuration not stated) | > 100 µM (inactive) | > 100 µM (inactive) | > 100 µM (inactive) | > 100 µM (inactive) | 61.2 µM (inactive) | – | > 100 µM (inactive) | > 100 µM (inactive) | > 95.9 µM (inactive)
18 | CC(C)C1=CC23CCC4C(C)(C(=O)O)CCCC4(C)C2CC1C1C(=O)N(c2ccccc2)C(=O)C13 (configuration not stated) | > 100 µM (inactive) | > 100 µM (inactive) | 39.6 µM (inactive) | 43.9 µM (inactive) | 35.4 µM (inactive) | – | – | 35.2 µM (inactive) | 36.1 µM (inactive)
19 | CCC12C[N+]3([O-])CCc4c([nH]c5ccccc45)C(C(=O)OC)(c4cc5c(cc4OC)N(C)C4C(O)(C(=O)OC)C(OC(C)=O)C6(CC)C=CCN7CCC54C76)CC(C3)C1O2 (configuration not stated) | 0.883 µM (active) | 16 µM (inactive) | 0.256 µM (active) | 0.656 µM (active) | 0.36 µM (active) | – | 0.506 µM (active) | 0.407 µM (active) | 0.237 µM (active)
20 | COC(=O)CCC12CCC(=O)C1[C@@H](C(=O)OC)C[C@H]2C(=O)OC (some centres not stated) | > 100 µM (inactive) | > 100 µM (inactive) | > 100 µM (inactive) | > 100 µM (inactive) | > 100 µM (inactive) | > 100 µM (inactive) | > 100 µM (inactive) | > 100 µM (inactive) | > 100 µM (inactive)
21 | CC(=O)O[C@H]1C(=O)O[C@@H]2C[C@H]3C(C)=CC(=O)[C@@H](O)[C@]3(C)[C@H]3[C@@]4(O)OC[C@]32[C@@H]1[C@@H](C)[C@H]4O | 0.03 µM (active) | 0.177 µM (active) | 0.0977 µM (active) | – | 0.0253 µM (active) | – | 0.0515 µM (active) | 0.031 µM (active) | 0.0264 µM (active)
22 | CN(C)C(=S)Nc1nnc(NC23CC4CC(CC(C4)C2)C3)s1.[O-][Cl+3]([O-])([O-])O | – | – | 11.1 µM (inactive) | – | 19.4 µM (inactive) | – | 39.2 µM (inactive) | – | 20.6 µM (inactive)
23 | O=C1C2=C(c3ccccc31)C(c1ccccc1)N1C(=O)CSC1=N2 (configuration not stated) | > 100 µM (inactive) | – | 91 µM (inactive) | 52 µM (inactive) | 43.1 µM (inactive) | 80.9 µM (inactive) | – | > 100 µM (inactive) | 55.8 µM (inactive)
24 | CC1=C2C(=CC(C)(C)C2O)C(=O)C(C)(O)C12CC2 (configuration not stated) | 0.00665 µM (active) | 0.0337 µM (active) | 0.00521 µM (active) | 0.0198 µM (active) | 0.00794 µM (active) | – | 0.00893 µM (active) | 0.00906 µM (active) | 0.00489 µM (active)
